This passage reports logP and logD results from the SangsterLogP compilation.

Test in the first data set: not given
Settings: not given
The compound `CCCCCCCCCCCCCCCC(=O)OCC(COC(=O)C(C)c1ccc2cc(OC)ccc2c1)OC(=O)CCCCCCCCCCCCCCC` (centres undefined) gave a logP of 6.28.

The compound `CCCCCC(=O)OCC(CCOC(=O)c1ccc2cc(OC)ccc2c1)OC(=O)CCCCC` (centres undefined) showed a logP of 5.68.

`CCCCCCCC/C=C\CCCCCCCC(=O)OCC(COC(=O)C(C)c1ccc2cc(OC)ccc2c1)OC(=O)CCCCCCC/C=C\CCCCCCCC` (centres undefined): the logP came out at 6.39.

`CCCCCCCCCCCC(=O)OCC(COC(=O)C(C)c1ccc2cc(OC)ccc2c1)OC(=O)CCCCCCCCCCC` (centres undefined) showed a logP of 6.08.

With `CCCC(=O)OCC(COC(=O)C(C)c1ccc2cc(OC)ccc2c1)OC(=O)CCC` (centres undefined), the logP is 4.84.

Test in another data set: not given
Settings: not given
The source holds these as a separate data set.
The compound `c1ccc2cc3cc4ccccc4cc3cc2c1` came in with a logP of 5.76.

Take `Cc1ccc2c(ccc3ccccc32)c1`: the logP turned out to be 5.24.

Turning to `c1ccc2cc3cc4c(ccc5ccccc54)cc3cc2c1`, the logP came out at 6.81.

In turn, `Cc1cccc2c1ccc1ccccc12` returned a log partition coefficient (logP) of 5.08.

Compound `CCc1ccc2cc3ccccc3cc2c1` showed a logP of 5.85.

The next data set is described as follows: method code SF-AS, from PMID: 10944786. The conditions noted are these: pH 7.0.
Compound `CCCOc1cccc(NC(=O)OCN2CCCCC2)c1` had a logD of 2.6.

`CCCOc1ccc(NC(=O)OCN2CCCCC2)cc1` had a logD of 2.42.

Compound `CCCCOc1ccc(NC(=O)OCN2CCCCC2)cc1` had a logD of 3.04.

`CCCCOc1ccccc1NC(=O)OCN1CCCCC1` had a logD of 2.39.

In turn, `CCCOc1ccccc1NC(=O)OCN1CCCCC1` registered a logD of 2.33.

Test in another data set: not given
Settings: not given
This is another data set of the same source.
`OCCN1CCN(CCCN2c3ccccc3Sc3ccc(Cl)cc32)CC1` had a logP of 4.25.

On to `CN1CCN(CCCN2c3ccccc3Sc3ccc(Cl)cc32)CC1`, for which the lipophilicity (logP) worked out at 4.79.

As for `CC(NCCC(c1ccccc1)c1ccccc1)c1ccccc1` (centres undefined), the logP was 4.89.

`COc1ccc2c(c1)N(CC(C)CN(C)C)c1ccccc1S2` (centres undefined) yielded a logP of 4.4.

In turn, `CCSc1ccc2c(c1)N(CCCN1CCN(C)CC1)c1ccccc1S2` came in with a logP of 4.82.

The nature of a further data set: method code SF-HPLC, from PMID: 2780588.
Settings: not given
`CCCCCNC(=O)Cc1ccc(O)c(OC)c1` registered a logP of 1.67.

In turn, `CCCCCCCCC(=O)NCc1ccc(O)c(OC)c1` registered a logP of 2.96.

For the compound `COc1cc(CNC(=O)CCCC/C=C/C(C)C)ccc1O`, the log partition coefficient (logP) was 3.04.

`CCCCCCCCCCCNC(=O)Cc1ccc(O)c(OC)c1`: the logP turned out to be 3.74.

Compound `CCCCCCCCC(=O)NCc1cccc(OC)c1` yielded a logP of 3.31.

The next data set in a line: method code SF-HPLC, from PMID: 9554875. Particulars: pH 6.8.
Consider `Cc1cccc2c1OP(=O)(OCC1C=CC(n3cc(C)c(=O)[nH]c3=O)O1)OC2` (centres undefined), for which the logD was found to be 0.71.

`COc1ccc2c(c1)COP(=O)(OCC1C=CC(n3cc(C)c(=O)[nH]c3=O)O1)O2` (centres undefined) gave a logD of 0.36.

`Cc1cn(C2C=CC(COP3(=O)OCc4ccccc4O3)O2)c(=O)[nH]c1=O` (centres undefined): the logD amounted to 0.28.

`Cc1cc(C)c2c(c1)COP(=O)(OCC1C=CC(n3cc(C)c(=O)[nH]c3=O)O1)O2` (centres undefined) had a logD of 1.18.

Regarding `Cc1ccc2c(c1)COP(=O)(OCC1C=CC(n3cc(C)c(=O)[nH]c3=O)O1)O2` (centres undefined), the logD was determined as 0.73.

Test in the next data set: not given
Settings: not given
This is another data set of the same source.
`C=CCn1nc(-c2sc(NC(=O)C(C)(C)C)nc2C)cc1C(=O)Nc1ccc(OC)cc1`: the logP was 4.55.

Regarding `COc1ccc(NC(=O)c2cc(-c3sc(NC(=O)C(C)(C)C)nc3C)n(-c3ccc(Br)cc3)n2)cc1`, the logP was 5.17.

As for `Cc1nc(NC(=O)C(C)(C)C)sc1-c1cc(C(=O)NCc2ccccc2)n(Cc2ccccc2)n1`, the logP was determined as 4.82.

Turning to `COc1cc(Cl)ccc1Cn1nc(-c2sc(NC(=O)C(C)(C)C)nc2C)cc1C(=O)N1CCOCC1`, the logP was 4.1.

As to `COc1ccc(NC(=O)c2cc(-c3sc(NC(=O)C(C)(C)C)nc3C)nn2Cc2ccc(Cl)cc2OC)cc1`, the logP stood at 5.33.

Test in another data set: not given
Settings: not given
The source holds these as a separate data set.
For `COP(=O)(NC(C)=O)SC` (centres undefined), the logP is -0.46.

In turn, `CNC(=O)O/N=C/C(C)(C)SC` had a logP of 1.19.

`CCCOC(=O)NCCCN(C)C` registered a logP of 2.43.

Test in the next data set: not given
Settings: not given
This is another data set of the same source.
Compound `CCCCC(N)=O` returned a logP of 0.37.

In turn, `COC(N)=O` yielded a logP of -0.64.

Regarding `OCCO`, the logP is -1.21.

With `OCCCCCCO`, the logP was -0.02.

A short description of another data set: method code SF-HPLC, from DOI: 10.1016/0045-6535(86)90532-1. The conditions noted are these: pH 6.5.
For `CN(C)C(=S)N(C)C`, the logD was 0.49.

`CCNC(N)=S` registered a logD of -0.21.

On to `CCNC(=S)NCC`, for which the logD was 0.57.

In the case of `CN(C)C(N)=S`, the logD was -0.43.

A further data set in a line: method code SF-AS, from DOI: 10.1021/jm00253a014, PMID: 4151967. Particulars: pH 7.4.
The compound `CCn1c(C)c(COC(N)=O)c2c1C(=O)C(C)=C(OC)C2=O` showed a pH-dependent lipophilicity (logD) of 1.81.

In the case of `CCn1c(C)c(COC(=O)NCCO)c2c1C(=O)C(C)=C(OC)C2=O`, the logD stood at 1.64.

`COC1=C(C)C(=O)c2c(c(COC(N)=O)c3n2CCC3)C1=O` returned a log distribution coefficient (logD) of 1.71.

In the case of `COC1=C(C)C(=O)c2c(c(COC(N)=O)c3n2CCC3OC(C)=O)C1=O` (centres undefined), the log distribution coefficient (logD) was determined as 1.54. This logD and that of the compound before are within 0.2 log units of each other.

Compound `CC1=C(N)C(=O)c2c(COC(N)=O)c3n(c2C1=O)CCC3O` (centres undefined) came in with a logD of 0.64.

The nature of the next data set: method code SF-AS, from DOI: 10.1007/s001289900158, PMID: 8661463.
Settings: not given
As for `CCN(CC)c1nc(NN)nc(NN)n1`, the logP was determined as 1.22.

Compound `NNc1nc(NN)nc(N2CCOCC2)n1` showed a logP of 0.62.

In the case of `CCN(CC)c1nc(Cl)nc(Cl)n1`, the logP came out at 2.17.

In turn, `Clc1ccnc(Cl)n1` came in with a logP of 1.16.

The next data set can be described thus: method code SF-AS, from DOI: 10.1002/chin.199416148, PMID: 8117185.
Settings: not given
The compound `O=C(CCN1CCCCC1)CN1C(=O)C2CC=CCC2C1=O` (centres undefined) came in with a logP of 1.44.

In turn, `CC(C(=O)CCN1CCCCC1)N1C(=O)C2CC=CCC2C1=O` (centres undefined) yielded a logP of 1.55.

For the compound `O=C(CCN1CCCCC1)CN1C(=O)CC(c2ccc(Cl)cc2)C1=O` (centres undefined), the logP turned out to be 2.23.

As to `O=C(CCN1CCCCC1)CN1C(=O)c2ccccc2C1=O`, the logP worked out at 0.86.

Regarding `CC(C(=O)CCN(C)C)N1C(=O)C2CC=CCC2C1=O` (centres undefined), the logP came to 0.77.

A further data set in a line: method code SF-NMR, from DOI: 10.1002/jps.2600751016, PMID: 3795031.
Settings: not given
For the compound `CC(CCO)CC(F)(F)F` (centres undefined), the logP was found to be 1.61.

For `OCCCCCC(F)(F)F`, the lipophilicity (logP) is 1.64. The logP values of the last two compounds are within 0.2 log units of each other.

For the compound `OCCCCC(F)(F)F`, the logP came to 1.15.

`CC(O)CC(F)(F)F` (centres undefined) came in with a logP of 0.71.

The next data set is described as follows: method code SF-AS, from DOI: 10.1016/j.ejmech.2011.02.056, PMID: 21420207.
Settings: not given
`CCSCCCCCCCCCCCC(=O)NC1CC(OC2CC(O)(C(=O)CO)Cc3c(O)c4c(c(O)c32)C(=O)c2c(OC)cccc2C4=O)OC(C)C1O` (centres undefined) had a logP of 2.

Regarding `CCCCCCCCCCCCCCCCCCCC(=O)N[C@H]1C[C@H](O[C@H]2C[C@](O)(C(=O)CO)Cc3c(O)c4c(c(O)c32)C(=O)c2c(OC)cccc2C4=O)O[C@@H](C)[C@H]1O`, the logP came to 2.31.

The compound `CCCCCCCCCCCCCC(=O)N[C@H]1C[C@H](O[C@H]2C[C@](O)(C(=O)CO)Cc3c(O)c4c(c(O)c32)C(=O)c2c(OC)cccc2C4=O)O[C@@H](C)[C@H]1O` had a logP of 1.94.

Regarding `CCCCCCCCCC(=O)N[C@H]1C[C@H](O[C@H]2C[C@](O)(C(=O)CO)Cc3c(O)c4c(c(O)c32)C(=O)c2c(OC)cccc2C4=O)O[C@@H](C)[C@H]1O`, the logP was 1.92.

Compound `CCCCCCCCCCCCCCCCCC(=O)N[C@H]1C[C@H](O[C@H]2C[C@](O)(C(=O)CO)Cc3c(O)c4c(c(O)c32)C(=O)c2c(OC)cccc2C4=O)O[C@@H](C)[C@H]1O` showed a logP of 2.17.

Another data set can be described thus: method code SF, from Yoshimoto, M. (1982). Quantitative structure-activity relationships and structure patterns of drugs. SankyoÌ„ KenkyuÌ„jo nenpoÌ„ (Annual report of Sankyo Research Laboratories), 34, 1-38.
Settings: not given
In turn, `COC1(NC(=O)CSc2nnc(C)s2)C(=O)N2C(C(=O)O)=C(COC(N)=O)CSC21` (centres undefined) returned a log partition coefficient (logP) of -2.16.

`CCCSCC(=O)NC1(OC)C(=O)N2C(C(=O)O)=C(COC(N)=O)CSC21` (centres undefined) gave a logP of -1.76.

For `CCCCCSCC(=O)NC1(OC)C(=O)N2C(C(=O)O)=C(COC(N)=O)CSC21` (centres undefined), the logP was -1.31.

In turn, `COC1(NC(=O)CSc2[nH]cnc3ncnc2-3)C(=O)N2C(C(=O)O)=C(COC(N)=O)CSC21` (centres undefined) registered a logP of -1.99.

For the compound `CCCCSCC(=O)NC1(OC)C(=O)N2C(C(=O)O)=C(COC(N)=O)CSC21` (centres undefined), the logP is -1.57.

Broadly, the logP is the decadic logarithm of the partition coefficient of the neutral form, usually between octanol and water. The low end stands for a more hydrophilic compound, the high end for a more lipophilic compound. Broadly, the logD is the decadic logarithm of the distribution of all forms, ionised or not, between an organic phase and buffer at a given pH. Read a high logD as higher lipophilicity.
